Experimental data from patent publication US20100099845A1, “PROTECTED ENANTIOPURE TRIFLUOROTHREONINES AND METHODS OF MAKING AND USING SAME” (University of Utah Research Foundation, priority 2006, published 2010).

Columns and labels:
[1] = literature values of Kovacs, Mant, Hodges 2006; cited from earlier work
[2] = Relative hydrophobicity by reversed-phase HPLC retention time (method of Hodges and coworkers); type: physicochemical; details: for retention time, tR (measure of hydrophobicity): Kromasil C18, 0.2% TFA water/ACN linear gradient 0.25% ACN/min from 55% B, 0.3 mL/min, 25° C., co-injection, FIG. 4; for retention time difference ΔtR relative to allo-D-Thr/allo-L-Thr pair: same reversed-phase HPLC conditions, CF3 vs CH3
Experimental: As fluorination can decrease the hydrophilicity of a molecule [(a) Böhm, H-J.; Banner, D.; Bendels, S.; Kansy, M.; Kuhn, B.; Müller, K.; Obst-Sander, U.; Stahl, M. Chem BioChem. 2004, 5, 637-643. […] 1996, 276, 1049-1057.], the hydrophobicity of Fmoc-tfT (1a and 1b) relative to their non-fluorinated counterparts was determined. The chromatography method developed by Hodges and coworkers [Kovacs, J. M.; Mant, C. T.; Hodges, R. S. Biopolymers (Peptide Science) 2006, 84, 283-297.], who determined the relative hydrophobicity of 23 L-amino acids and their D-enantiomers, was used. As pointed out by Hodges and coworkers [Kovacs, J. M.; Mant, C. T.; Hodges, R. S. Biopolymers (Peptide Science) 2006, 84, 283-297.], a criterion for measuring true hydrophobicity of an amino acid is that the D/L enantiomers should give the same retention time, tR. […] All of the enantiomeric pairs, allo-D-Thr/allo-L-Thr (tR=7.2 min), D-Thr/L-Thr (tR=9.2 min) and allo-D-tfT/allo-L-tfT (tR=11.6 min), co-elute, satisfying the criterion established by Hodges and coworkers. [Kovacs, J. M.; Mant, C. T.; Hodges, R. S. Biopolymers (Peptide Science) 2006, 84, 283-297.] In reversed-phase chromatography, a larger retention time typically indicates a more hydrophobic molecule. The allo-D-tfT/allo-L-tfT pair is more retentive than the allo-D-Thr/allo-L-Thr pair (ΔtR=11.6−7.2=4.2 min). […] [Kovacs, J. M.; Mant, C. T.; Hodges, R. S. Biopolymers (Peptide Science) 2006, 84, 283-297.]
In FIG. 4, all chromatography runs followed exactly the same conditions used by Hodges and coworkers [Zhang, X. G.; Ni, W. J.; van der Donk, W. A. J. Org. Chem. 2005, 70, 6685-6692.]. The HPLC conditions are as follows: column, Kromasil C18 (150 mm×2.1 mm I.D., 5 μm, 100 Å pore size, Higgins Analytical, Inc., CA); mobile phase, A: 0.2% TFA (trifluoroacetic acid) in water, B: 0.2% TFA in ACN (acetonitrile); condition, linear AB gradient (0.25% ACN/min, starting from 55% B); flow rate, 0.3 mL/min; temperature, 25° C. 1a and 1b were purified by silica-gel column chromatography and dissolved in mobile phase B before injection. allo-D-N-Fmoc-O-tert-butyl-Thr and allo-L-N-Fmoc-O-tert-butyl-Thr were from BACHEM California Inc. D-N-Fmoc-O-tert-butyl-Thr and L-N-Fmoc-O-tert-butyl-Thr were from Novabiochem.

Compound | retention time, tR (measure of hydrophobicity) [2] [min] | further results
C[C@H](N)C(=O)O [Ala] |  | retention time difference ΔtR relative to Gly [1]: 2.8 min
N[C@@H](CS)C(=O)O [Cys, cysteine] |  | retention time difference ΔtR relative to Ala [1]: 4.8 min
C[C@H](OC(C)(C)C)[C@@H](NC(=O)OCC1c2ccccc2-c2ccccc21)C(=O)O [D-Thr, (2R,3S)-N-Fmoc-O-tert-butyl-threonine] | 9.2 | 
C[C@@H](OC(C)(C)C)[C@H](NC(=O)OCC1c2ccccc2-c2ccccc21)C(=O)O [L-Thr, (2S,3R)-N-Fmoc-O-tent-butyl-threonine] | 9.2 | 
CC(C)[C@H](N)C(=O)O [Val] |  | retention time difference ΔtR relative to Ala [1]: 10.6 min
C[C@@H](OC(C)(C)C)[C@@H](NC(=O)OCC1c2ccccc2-c2ccccc21)C(=O)O [allo-D-Thr, (2R,3R)-N-Fmoc-O-tert-butyl-threonine] | 7.2 | 
CC(C)(C)O[C@@H]([C@@H](NC(=O)OCC1c2ccccc2-c2ccccc21)C(=O)O)C(F)(F)F [allo-D-tfT, (2R,3S)-2-(((9H-fluoren-9-yl)methoxy)carbonylamino)-3-tert-butoxy-4,4,4-trifluorobutanoic acid] | 11.6 | retention time difference ΔtR relative to allo-D-Thr/allo-L-Thr pair [2]: 4.2 min
C[C@H](OC(C)(C)C)[C@H](NC(=O)OCC1c2ccccc2-c2ccccc21)C(=O)O [allo-L-Thr, (2S,3S)-N-Fmoc-O-tent-butyl-threonine] | 7.2 | 
CC(C)(C)O[C@H]([C@H](NC(=O)OCC1c2ccccc2-c2ccccc21)C(=O)O)C(F)(F)F [allo-L-tfT, (2S,3R)-4,4,4-trifluoro-N-Fmoc-O-tert-butyl-threonine] | 11.6 | retention time difference ΔtR relative to allo-D-Thr/allo-L-Thr pair [2]: 4.2 min
